System: influenza
Set-up: species or system mice
Conditions: mouse, in vivo

GLA
Th1 T cell responses (antigen-specific IgG2a titers and IFNγ production): dramatic increase in antigen-specific IgG2a titers and IFNγ production
